Measured values taken from paper PMC4380424, “Prediction of Overall In Vitro Microsomal Stability of Drug Candidates Based on Molecular Modeling and Support Vector Machines. Case Study of Novel Arylpiperazines Derivatives” (PLoS ONE, 2015).
Entries after “also recorded” stand apart in the source; their conditions may differ.

Assays:
[1] = Metabolic stability: in vitro incubation with human liver microsomes and NADPH, LC-MS quantification; conditions: pooled human liver microsomes, pH 7.4
Method: (§1) The studied compounds were dissolved in acetonitrile (compounds 1, 3, 4, 10, 18, 19, 21, 22, 23, 24, 25, 26, 27, 28, 29), water (compounds 2, 7, 9, 11, 12, 13, 14, 15, 16, 17, 20, 30) or dimethyl sulfoxide (compounds 5 and 6), and diluted in phosphate buffer (pH = 7.4) to obtain 100 μM solutions. A 10 mM NADPH solution in phosphate buffer was prepared before incubations. Final concentrations in the incubation mixes were 5 μM of studied compound, 500 μM of NADPH and 1 mg/ml of human liver microsomes.
(§2) Using a MyBlock mini dry-bath (Benchmark Scientific, NJ, USA), mixtures without the compounds were subjected to a 5 min pre-incubation at 37°C before each experiment. Incubations were initiated with the addition of 15 μL of the compound solution to the mixture. The experiment lasted for 30 min. Immediately after addition of the compound, 50 μL of incubation mixture was collected and mixed with 50 μL of the stopping reagent, which was ice-cold acetonitrile containing 5 μM buspirone as internal standard. The next sample collection points were after 5, 10, 15 and 30 minutes of incubation time. After stopping the reaction, suspensions were centrifuged for 10 minutes at 7378 g using a Microfuge 16 (Beckman Instruments, Fullerton, CA, USA). Subsequently, 70 μL of supernatant thus obtained was directly analyzed using LC-MS (Agilent Technologies, Santa Clara, CA, USA).
(§3) The incubation and LC-MS analysis were repeated twice for each compound. To ensure that the biological conditions were valid, and no compound degradation occurs related to the addition of the enzyme solution, a negative control for each derivative was also performed.
(§4) The LC analysis was carried out using an Agilent 1260 Infinity system (Agilent Technologies) consisting of a binary pump, autosampler, temperature-controlled column compartment and UV variable wavelength detector, coupled with an Agilent 6120 Single Quad mass detector. Incubation samples were separated at 40°C on a Poroshell 120 EC-C-18 column (3 mm x 100 mm, 2.7 μm), provided by Agilent Technologies. The data were collected and processed in ChemStation software (v. B. 04.03, Agilent Technologies, Santa Clara, CA, USA). The injection volume was 10 μL. Mobile phases consisted of deionized water (phase A) and acetonitrile (phase B), both with 10 mM ammonium formate buffer (pH = 3) added. Gradient elution program was as follows: 0–15 min—5%-100% B, 15–16 min—100% B, 16–16.10 min—100%-5% B, 16.10–21 min 5% B. The flow rate was 0.5 ml/min. The total time for a single analysis was 21 minutes. MS detection was performed using an Agilent 6120 Single Quad mass spectrometer (Agilent Technologies) equipped with an electrospray (ESI) ion source. A nebulizer (pressure set to 40 psig) allowed for the gas phase ionization of studied compounds. Nitrogen (NM32LA Nitrogen Generator, Peak Scientific Instruments, Billerica, MA, USA) was used as the drying gas, with a flow rate of 10 L/min and a drying temperature of 300°C. Capillary voltage was set to 3000 V. Fragmentor voltage was set to 150 V. Chromatograms were collected with the use of single ion monitoring (SIM) in positive ion mode.
(§5) Half-life evaluation requires a compound depletion plot, which is obtained by plotting the time of incubation against the logarithmic peak area ratio (the ratio of the compound peak area to the internal standard peak area). […] After the elimination rate constant was designated, half-lives were calculated (Equation 1).

[2] = LC-Q-TOF-MS/MS metabolite structure elucidation after microsomal incubation; conditions: HLM + NADPH incubation
Method: as §1, §2
Tandem mass spectra of the metabolites were obtained with the use of an Agilent 1290 LC system connected to a hybrid Q-TOF tandem mass spectrometer (Agilent 6540 Series Accurate Mass Q-TOF-MS/MS). […] The Dual ESI source was operated in positive ion mode with the following conditions: the fragmentor voltage was set at 150V, nebulizer gas was set at 40 psig, capillary voltage was set at 3000 V, drying gas flow rate and temperature were set at 10 L/min and 300°C, respectively. The MS was operated in targeted MS/MS acquisition mode with a fixed collision energy of 35 V and a mass range of 30–1700 m/z. […] The instrument was operated in High Resolution mode (4 GHz). The Q-TOF was calibrated using reference masses 121.050873, 149.02332 and 922.009798 during the analysis run to ensure constant mass correction.
Several derivatives that varied in their degrees of non-pharmacophore ring saturation, R, R’ substituents and pharmacophore parts (2-pyridyl, 2-pyrimidynyl, phenyl-CF3), were chosen to collect fragmentation spectra using a Q-TOF tandem mass spectrometer and LC conditions as described earlier. […] The compounds’ structures and chromatographs were submitted to MassHunter Workstation Software MetaboliteID ver. B.02.00 build 2.0.121 to detect possible biotransformation products.

[3] = in vitro; conditions: human, microsomes, pH 7.4
Method: as §1, §2, §3, §4, §5

Row | half-life at 5 μM [1] [min] | Type of biotransformation, metabolite M1 [2] | Structure (SMILES) | Type of biotransformation, metabolite M2 [2] | Type of biotransformation, metabolite M3 [2] | half-life at 5 μM [3] [min]
1 | 5.29 | hydroxylation | O=c1c(-c2ccccc2)c2ccccn2c(=O)n1CCCCN1CCN(c2ncccn2)CC1 [Compound 6] | double hydroxylation in pharmacophore part |  | 
2 | 4 | Hydroxylation in the pharmacophore part | COc1ccccc1-c1c(=O)n(CCCCN2CCN(c3ncccn3)CC2)c(=O)n2ccccc12 [Compound 11] | hydroxylation | O-demethylation reaction along with hydroxylation in the pharmacophore part; also recorded: O-demethylation and hydroxylation | 

Continued, molecule first:

Row | Structure (SMILES) | half-life at 5 μM [1] [min] | Type of biotransformation, metabolite M1 [2] | Type of biotransformation, metabolite M2 [2] | Type of biotransformation, metabolite M3 [2] | half-life at 5 μM [3] [min]
3 | O=C1CC2(CCCC2)CC(=O)N1CCCCN1CCN(c2ncccn2)CC1 [Buspirone, buspirone, reference compound] | 6.59 |  |  |  | 
4 | O=C1C(c2ccccc2)C2CCCCN2C(=O)N1CCCCN1CCN(c2ccccc2F)CC1 (stereo not shown) [Compound 25] |  |  |  |  | 5.77
5 | O=c1c(-c2ccccc2)c2n(c(=O)n1CCCCN1CCN(c3ncccn3)CC1)CCCC2 [Compound 30] | 9.32 | hydroxylation of the non-pharmacophore part of the molecules; also recorded: hydroxylation in both pharmacophore and non-pharmacophore site | hydroxylation of the non-pharmacophore part of the molecules; also recorded: Hydroxylation in the non-pharmacophore part of the molecule; also recorded: hydroxylation | hydroxylation | 
